Patent publication US20250114345A1, “COMPOUNDS AND COMPOSITIONS AS CBP/P300 DEGRADERS AND USES THEREOF” (Oncopia Therapeutics, Inc. d/b/a/ SK Life Science Labs, priority 2023, published 2025)

Legend:
CBP = molecular target: T1, CBP (Homo sapiens, UniProt Q92793); test: CBP degradation, HiBit technology in A549 CBP HiBit cells (24 h); assay type: cell-based; conditions: 24 hrs post treatment
T1 construct: host or cells: A549 CBP HiBit cells
Procedure, shortened: (§1)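 Degradation potency and Dmax came from luminescence after 10 min room-temperature lysis with HiBit detection buffer. Beforehand, HiBit-tagged A549 lines received serial compound dilutions (10 mM DMSO stocks) at 37 °C, 5% CO2. CBP cells were read at 24 h, p300 cells at 2 h.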

p300 = molecular target: T2, p300 (Homo sapiens, UniProt Q09472); test: P300 degradation, HiBit technology in A549 P300 HiBit cells (2 h); assay type: cell-based; conditions: 2 hrs post treatment; for Dmax: A549, A549 P300 HiBit cells; for DC50: A549 P300 HiBit cells
T2 construct: host or cells: A549 P300 HiBit cells
Procedure, shortened: as §1

T2 sequence (Q09472 whole entry): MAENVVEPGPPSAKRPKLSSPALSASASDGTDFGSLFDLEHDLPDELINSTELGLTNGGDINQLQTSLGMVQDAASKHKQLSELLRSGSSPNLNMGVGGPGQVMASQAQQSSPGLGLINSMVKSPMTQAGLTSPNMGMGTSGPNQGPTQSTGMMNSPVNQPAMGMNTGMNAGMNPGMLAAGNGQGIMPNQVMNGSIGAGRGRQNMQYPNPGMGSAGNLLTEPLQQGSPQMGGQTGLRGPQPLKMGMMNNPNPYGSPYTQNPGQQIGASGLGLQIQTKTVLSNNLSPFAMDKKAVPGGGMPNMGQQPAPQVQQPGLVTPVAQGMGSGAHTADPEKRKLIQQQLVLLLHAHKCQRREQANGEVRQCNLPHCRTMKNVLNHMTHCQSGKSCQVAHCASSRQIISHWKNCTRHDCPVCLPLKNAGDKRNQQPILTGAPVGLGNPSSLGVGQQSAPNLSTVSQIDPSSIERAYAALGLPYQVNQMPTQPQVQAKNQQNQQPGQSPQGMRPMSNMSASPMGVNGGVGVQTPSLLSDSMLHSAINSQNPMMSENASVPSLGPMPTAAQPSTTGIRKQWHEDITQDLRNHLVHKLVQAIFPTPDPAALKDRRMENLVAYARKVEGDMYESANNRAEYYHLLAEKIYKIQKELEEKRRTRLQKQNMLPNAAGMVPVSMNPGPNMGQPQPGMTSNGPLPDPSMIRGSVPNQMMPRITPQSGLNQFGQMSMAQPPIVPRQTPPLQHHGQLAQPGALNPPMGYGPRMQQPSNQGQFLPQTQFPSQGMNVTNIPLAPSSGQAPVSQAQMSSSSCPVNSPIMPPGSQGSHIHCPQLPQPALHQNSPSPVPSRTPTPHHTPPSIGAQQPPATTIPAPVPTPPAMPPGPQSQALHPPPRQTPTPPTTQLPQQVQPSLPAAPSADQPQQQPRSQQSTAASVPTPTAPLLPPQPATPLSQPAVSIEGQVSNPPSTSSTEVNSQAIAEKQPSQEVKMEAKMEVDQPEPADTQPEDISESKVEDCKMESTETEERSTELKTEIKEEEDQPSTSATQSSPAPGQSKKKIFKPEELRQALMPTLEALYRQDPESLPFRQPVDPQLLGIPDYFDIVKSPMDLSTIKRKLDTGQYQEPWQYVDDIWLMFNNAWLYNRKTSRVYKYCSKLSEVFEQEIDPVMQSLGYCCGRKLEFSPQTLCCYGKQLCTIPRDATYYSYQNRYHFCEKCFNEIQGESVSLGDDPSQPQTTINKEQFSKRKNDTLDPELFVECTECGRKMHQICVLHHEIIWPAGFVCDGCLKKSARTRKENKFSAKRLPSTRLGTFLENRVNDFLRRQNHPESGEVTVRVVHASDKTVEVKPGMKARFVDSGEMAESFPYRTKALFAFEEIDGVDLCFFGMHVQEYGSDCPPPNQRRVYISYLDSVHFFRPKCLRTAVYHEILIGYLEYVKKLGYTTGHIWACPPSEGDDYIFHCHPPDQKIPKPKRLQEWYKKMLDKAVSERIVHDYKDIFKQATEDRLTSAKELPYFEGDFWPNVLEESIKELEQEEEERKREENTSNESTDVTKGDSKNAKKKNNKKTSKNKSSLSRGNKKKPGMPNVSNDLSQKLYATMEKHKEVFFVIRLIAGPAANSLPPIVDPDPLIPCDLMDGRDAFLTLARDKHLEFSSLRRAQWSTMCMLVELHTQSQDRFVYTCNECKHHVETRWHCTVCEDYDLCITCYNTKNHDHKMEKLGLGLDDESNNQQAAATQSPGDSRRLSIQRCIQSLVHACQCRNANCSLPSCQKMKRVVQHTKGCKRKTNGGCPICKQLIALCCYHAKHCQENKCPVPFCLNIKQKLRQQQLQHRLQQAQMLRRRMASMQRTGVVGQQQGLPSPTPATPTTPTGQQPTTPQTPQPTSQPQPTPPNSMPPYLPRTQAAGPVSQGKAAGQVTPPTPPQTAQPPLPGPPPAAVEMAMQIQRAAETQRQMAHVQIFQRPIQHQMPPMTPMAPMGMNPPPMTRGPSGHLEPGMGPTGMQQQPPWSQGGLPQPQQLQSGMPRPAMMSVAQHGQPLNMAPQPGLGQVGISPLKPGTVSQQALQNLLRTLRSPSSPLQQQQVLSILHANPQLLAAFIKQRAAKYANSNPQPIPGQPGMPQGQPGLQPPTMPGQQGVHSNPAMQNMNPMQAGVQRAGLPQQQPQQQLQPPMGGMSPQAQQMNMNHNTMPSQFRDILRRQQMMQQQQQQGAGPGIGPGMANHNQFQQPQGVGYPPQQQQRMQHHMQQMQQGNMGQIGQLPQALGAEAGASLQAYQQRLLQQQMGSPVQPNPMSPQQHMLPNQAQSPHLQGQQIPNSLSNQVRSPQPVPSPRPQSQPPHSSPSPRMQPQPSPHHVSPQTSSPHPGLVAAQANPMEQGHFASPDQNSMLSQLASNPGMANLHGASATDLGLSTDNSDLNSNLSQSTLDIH
T1 sequence (Q92793 whole entry): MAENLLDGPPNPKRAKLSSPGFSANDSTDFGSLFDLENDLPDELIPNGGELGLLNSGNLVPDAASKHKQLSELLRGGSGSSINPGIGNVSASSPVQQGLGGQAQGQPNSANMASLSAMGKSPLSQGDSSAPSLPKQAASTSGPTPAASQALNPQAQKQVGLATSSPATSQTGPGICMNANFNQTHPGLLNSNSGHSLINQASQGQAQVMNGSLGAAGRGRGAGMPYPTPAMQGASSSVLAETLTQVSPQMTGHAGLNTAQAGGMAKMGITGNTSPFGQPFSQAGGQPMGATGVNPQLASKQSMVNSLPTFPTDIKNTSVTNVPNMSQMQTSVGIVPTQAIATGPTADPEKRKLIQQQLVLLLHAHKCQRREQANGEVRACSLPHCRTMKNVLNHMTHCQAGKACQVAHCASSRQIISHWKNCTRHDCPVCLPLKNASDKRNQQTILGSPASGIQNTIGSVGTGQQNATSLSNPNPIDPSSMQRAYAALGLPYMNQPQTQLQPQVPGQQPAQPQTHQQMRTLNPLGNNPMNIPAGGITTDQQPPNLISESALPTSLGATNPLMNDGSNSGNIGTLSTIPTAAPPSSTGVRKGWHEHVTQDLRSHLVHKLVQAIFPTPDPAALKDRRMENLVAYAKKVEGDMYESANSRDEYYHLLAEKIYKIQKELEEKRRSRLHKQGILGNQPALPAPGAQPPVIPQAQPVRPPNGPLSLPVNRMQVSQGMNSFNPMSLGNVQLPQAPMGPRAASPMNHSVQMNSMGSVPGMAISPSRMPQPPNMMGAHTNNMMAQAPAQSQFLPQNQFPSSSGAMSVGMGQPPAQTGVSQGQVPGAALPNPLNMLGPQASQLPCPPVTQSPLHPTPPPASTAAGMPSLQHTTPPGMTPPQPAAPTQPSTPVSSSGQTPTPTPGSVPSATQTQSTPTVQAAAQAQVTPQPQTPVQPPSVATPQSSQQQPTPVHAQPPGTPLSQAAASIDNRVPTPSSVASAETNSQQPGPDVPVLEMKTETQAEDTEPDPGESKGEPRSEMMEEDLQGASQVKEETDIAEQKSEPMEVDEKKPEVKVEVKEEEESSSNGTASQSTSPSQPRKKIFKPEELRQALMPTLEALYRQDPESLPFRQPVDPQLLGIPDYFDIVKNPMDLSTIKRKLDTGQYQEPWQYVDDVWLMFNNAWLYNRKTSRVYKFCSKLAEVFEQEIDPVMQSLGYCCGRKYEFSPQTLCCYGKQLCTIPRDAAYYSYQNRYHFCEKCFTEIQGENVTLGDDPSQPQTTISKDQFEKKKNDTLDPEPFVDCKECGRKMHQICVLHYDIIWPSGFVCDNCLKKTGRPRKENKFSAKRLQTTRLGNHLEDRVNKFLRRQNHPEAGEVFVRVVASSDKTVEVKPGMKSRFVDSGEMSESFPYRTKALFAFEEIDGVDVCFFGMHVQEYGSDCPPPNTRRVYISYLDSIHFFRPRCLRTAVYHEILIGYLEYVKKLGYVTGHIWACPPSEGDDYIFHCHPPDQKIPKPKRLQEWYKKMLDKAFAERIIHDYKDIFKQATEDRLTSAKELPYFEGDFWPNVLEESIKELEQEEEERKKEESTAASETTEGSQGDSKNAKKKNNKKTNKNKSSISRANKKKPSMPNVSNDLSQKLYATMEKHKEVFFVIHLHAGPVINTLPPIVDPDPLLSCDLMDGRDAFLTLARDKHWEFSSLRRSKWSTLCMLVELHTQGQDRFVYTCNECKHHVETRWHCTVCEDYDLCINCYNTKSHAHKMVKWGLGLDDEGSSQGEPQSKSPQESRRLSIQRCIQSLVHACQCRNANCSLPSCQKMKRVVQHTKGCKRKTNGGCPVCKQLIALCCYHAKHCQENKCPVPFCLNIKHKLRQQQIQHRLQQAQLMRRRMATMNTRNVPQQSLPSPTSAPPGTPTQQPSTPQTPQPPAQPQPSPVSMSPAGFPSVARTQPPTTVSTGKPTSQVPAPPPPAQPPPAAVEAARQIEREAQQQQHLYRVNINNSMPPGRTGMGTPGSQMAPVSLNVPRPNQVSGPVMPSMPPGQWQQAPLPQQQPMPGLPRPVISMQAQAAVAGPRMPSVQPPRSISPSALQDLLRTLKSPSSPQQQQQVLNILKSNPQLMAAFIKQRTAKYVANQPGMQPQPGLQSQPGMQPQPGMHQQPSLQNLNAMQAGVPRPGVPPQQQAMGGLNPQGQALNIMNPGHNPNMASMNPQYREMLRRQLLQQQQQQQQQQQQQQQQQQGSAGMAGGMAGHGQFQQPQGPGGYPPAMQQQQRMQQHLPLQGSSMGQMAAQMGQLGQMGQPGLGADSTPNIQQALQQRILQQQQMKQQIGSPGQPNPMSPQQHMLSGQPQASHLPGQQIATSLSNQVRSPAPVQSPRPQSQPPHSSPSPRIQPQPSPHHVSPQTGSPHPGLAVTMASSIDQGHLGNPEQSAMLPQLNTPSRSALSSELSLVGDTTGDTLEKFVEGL

Row | SMILES | DC50 (CBP) [nM] | Dmax (CBP) [%] | Dmax (p300) [%] | DC50 (p300) [nM]
1 | Cc1cc2c(N3CCCc4nc(-c5ccc(C(=O)NCC#Cc6cc7c(C8CCC(=O)NC8=O)nccc7n6C)nc5)ncc43)cc(C3CCOCC3)cc2n(C)c1=O (stereo not shown) [Example B136, 5-(5-(1,3-dimethyl-2-oxo-7-(tetrahydro-2H-pyran-4-yl)-1,2-dihydroquinolin-5-yl)-5,6,7,8-tetrahydropyrido[3,2-d]pyrimidin-2-yl)-N-(3-(4-(2,6-dioxopiperidin-3-yl)-1-methyl-1H-pyrrolo[3,2-c]pyridin-2-yl)prop-2-yn-1-yl) picolinamide] | > 1000 | < 20 | 60 to 79 | 1 to 9.9
2 | Cc1cc2c(N3CCCc4nc(-c5ccc(C(=O)NCC#Cc6ccc7occ(C8CCC(=O)NC8=O)c7c6)nc5)ncc43)nc(N3CC4(COC4)C3)cc2n(C)c1=O (stereo not shown) [Example B137, 5-(5-(1,3-dimethyl-2-oxo-7-(2-oxa-6-azaspiro[3.3]heptan-6-yl)-1,2-dihydro-1,6-naphthyridin-5-yl)-5,6,7,8-tetrahydropyrido [3,2-d]pyrimidin-2-yl)-N-(3-(3-(2,6-dioxo-piperidin-3-yl)benzofuran-5-yl)prop-2-yn-1-yl)picolinamide] | > 1000 | < 20 | 60 to 79 | 1 to 9.9
3 | Cc1cc2c(N3CCCc4cc(-c5ccc(C(=O)NCC#Cc6cc7c(C8CCC(=O)NC8=O)cccc7o6)nc5)nnc43)cc(C3CCOCC3)cc2n(C)c1=O (stereo not shown) [Example B138, 5-(8-(1,3-dimethyl-2-oxo-7-(tetrahydro-2H-pyran-4-yl)-1,2-dihydroquinolin-5-yl)-5,6,7,8-tetrahydropyrido[2,3-c]pyridazin-3-yl)-N-(3-(4-(2,6-dioxopiperidin-3-yl)benzofuran-2-yl)prop-2-yn-1-yl)picolinamide] | 100 to 999 | < 20 | > 80 | < 1
4 | Cc1cc(-c2ncc3c(n2)CCCN3c2cc(C3CCOCC3)cc3c2cc(C)c(=O)n3C)cnc1C(=O)NCC#Cc1cc2c(C3CCC(=O)NC3=O)cccc2o1 (stereo not shown) [Example B141, 5-(5-(1,3-dimethyl-2-oxo-7-(tetrahydro-2H-pyran-4-yl)-1,2-dihydroquinolin-5-yl)-5,6,7,8-tetrahydropyrido[3,2-d]pyrimidin-2-yl)-N-(3-(4-(2,6-dioxopiperidin-3-yl)benzofuran-2-yl)prop-2-yn-1-yl)-3-methylpicolinamide] | 10 to 99 | 20 to 39 | > 80 | < 1
5 | Cc1cc2c(N3CCCc4nc(-c5ccc(C(=O)NCC#Cc6cc7cccc(C8CCC(=O)NC8=O)c7o6)nc5)ncc43)cc(C3CCOCC3)cc2n(C)c1=O (stereo not shown) [Example B148, 5-(5-(1,3-dimethyl-2-oxo-7-(tetrahydro-2H-pyran-4-yl)-1,2-dihydroquinolin-5-yl)-5,6,7,8-tetrahydropyrido[3,2-d]pyrimidin-2-yl)-N-(3-(7-(2,6-dioxopiperidin-3-yl)benzofuran-2-yl)prop-2-yn-1-yl)picolinamide] | > 1000 | < 20 | 60 to 79 | 1 to 9.9
6 | Cc1cc(-c2ncc3c(n2)CCCN3c2cccc3c2cc(C)c(=O)n3C)cnc1C(=O)NCC#Cc1cc2c(C3CCC(=O)NC3=O)cccc2o1 (stereo not shown) [Example B153, 5-(5-(1,3-dimethyl-2-oxo-1,2-dihydroquinolin-5-yl)-5,6,7,8-tetrahydropyrido[3,2-d]pyrimidin-2-yl)-N-(3-(4-(2,6-dioxopiperidin-3-yl)benzofuran-2-yl)prop-2-yn-1-yl)-3-methylpicolinamide] | 100 to 999 | < 20 | > 80 | < 1
7 | Cc1cc2c(N3CCCc4nc(-c5ccc(C(=O)NCC#Cc6ccc7c(c6)c(C6CCC(=O)NC6=O)nn7C)nc5)ncc43)cc(C3CCOCC3)cc2n(C)c1=O (stereo not shown) [Example B154, 5-(5-(1,3-dimethyl-2-oxo-7-(tetrahydro-2H-pyran-4-yl)-1,2-dihydroquinolin-5-yl)-5,6,7,8-tetrahydropyrido[3,2-d]pyrimidin-2-yl)-N-(3-(3-(2,6-dioxopiperidin-3-yl)-1-methyl-1H-indazol-5-yl)prop-2-yn-1-yl)picolinamide] | 1 to 9.9 | 60 to 79 | > 80 | 1 to 9.9
8 | Cc1cc2c(N3CCCc4nc(-c5ccc(C(=O)NCC#Cc6nc7cccc(C8CCC(=O)NC8=O)n7n6)nc5)ncc43)cc(C3CCOCC3)cc2n(C)c1=O (stereo not shown) [Example B156, 5-(5-(1,3-dimethyl-2-oxo-7-(tetrahydro-2H-pyran-4-yl)-1,2-dihydroquinolin-5-yl)-5,6,7,8-tetrahydropyrido[3,2-d]pyrimidin-2-yl)-N-(3-(5-(2,6-dioxopiperidin-3-yl)-[1,2,4]triazolo [1,5-a]pyridin-2-yl)prop-2-yn-1-yl) picolinamide] | > 1000 | < 20 | 20 to 39 | 10 to 99
9 | Cc1cc2c(N3CCCc4nc(-c5ccc(C(=O)NCC#Cc6cc7c(C8CCC(=O)NC8=O)nccc7o6)nc5)ncc43)cc(C(C)C)cc2n(C)c1=O (stereo not shown) [Example B157, N-(3-(4-(2,6-dioxopiperidin-3-yl)furo[3,2-c]pyridin-2-yl)prop-2-yn-1-yl)-5-(5-(7-isopropyl-1,3-dimethyl-2-oxo-1,2-dihydroquinolin-5-yl)-5,6,7,8-tetrahydropyrido[3,2-d]pyrimidin-2-yl) picolinamide] | 10 to 99 | 20 to 39 | > 80 | 1 to 9.9
10 | Cc1cc2c(N3CCCc4nc(-c5ccc(C(=O)NCC#Cc6cc7c(C8CCC(=O)NC8=O)cccc7o6)nc5)ncc43)cc(C3CC4CCC(C3)O4)nc2n(C)c1=O (stereo not shown) [Example B159, 5-(5-(2-(8-oxabicyclo[3.2.1]octan-3-yl)-6,8-dimethyl-7-oxo-7,8-dihydro-1,8-naphthyridin-4-yl)-5,6,7,8-tetrahydropyrido[3,2-d]pyrimidin-2-yl)-N-(3-(4-(2,6-dioxopiperidin-3-yl)benzofuran-2-yl)prop-2-yn-1-yl)picolinamide] | 100 to 999 | 20 to 39 | > 80 | 1 to 9.9
11 | Cc1cc2c(-c3cn(C)c(=O)c4cc(-c5ccc(C(=O)NCC#Cc6cc7c(C8CCC(=O)NC8=O)cccc7o6)nc5)ncc34)cc(C3CCOCC3)nc2n(C)c1=O (stereo not shown) [Example B160, 5-(8-(6,8-dimethyl-7-oxo-2-(tetrahydro-2H-pyran-4-yl)-7,8-dihydro-1,8-naphthyridin-4-yl)-6-methyl-5-oxo-5,6-dihydro-2,6-naphthyridin-3-yl)-N-(3-(4-(2,6-dioxopiperidin-3-yl)benzofuran-2-yl)prop-2-yn-1-yl)picolinamide] | > 1000 | < 20 | > 80 | 1 to 9.9
12 | Cc1cc2c(N3CCCc4nc(-c5ccc(C(=O)NCC#Cc6cc7c(C8CCC(=O)NC8=O)cccc7o6)nc5)ncc43)cc(C3CCC3)cc2n(C)c1=O (stereo not shown) [Example B161, 5-(5-(7-cyclobutyl-1,3-dimethyl-2-oxo-1,2-dihydroquinolin-5-yl)-5,6,7,8-tetrahydropyrido [3,2-d]pyrimidin-2-yl)-N-(3-(4-(2,6-dioxo-piperidin-3-yl)benzofuran-2-yl)prop-2-yn-1-yl)picolinamide] | > 1000 | < 20 | > 80 | 1 to 9.9
13 | Cc1cc2c(N3CCCc4nc(-c5ccc(C(=O)NCC#Cc6cc7c(C8CCC(=O)NC8=O)cccc7o6)nc5)ncc43)nc(N3CCC(C)(O)CC3)cc2n(C)c1=O (stereo not shown) [Example B162, N-(3-(4-(2,6-dioxopiperidin-3-yl)benzofuran-2-yl)prop-2-yn-1-yl)-5-(5-(7-(4-hydroxy-4-methylpiperidin-1-yl)-1,3-dimethyl-2-oxo-1,2-dihydro-1,6-naphthyridin-5-yl)-5,6,7,8-tetrahydropyrido[3,2-d]pyrimidin-2-yl) picolinamide] | > 1000 | < 20 | > 80 | 1 to 9.9
14 | Cc1cc2c(N3CCCc4nc(-c5ccc(C(=O)NCC#Cc6cc7c(C8CCC(=O)NC8=O)cccc7o6)nc5)ncc43)cc(C3COC3)nc2n(C)c1=O (stereo not shown) [Example B163, 5-(5-(6,8-dimethyl-2-(oxetan-3-yl)-7-oxo-7,8-dihydro-1,8-naphthyridin-4-yl)-5,6,7,8-tetrahydropyrido[3,2-d]pyrimidin-2-yl)-N-(3-(4-(2,6-dioxopiperidin-3-yl)benzofuran-2-yl)prop-2-yn-1-yl)picolinamide] | > 1000 | < 20 | > 80 | < 1
15 | Cc1cc2c(N3CCCc4nc(-c5ccc(C(=O)NCC#Cc6cc7c(C8CCC(=O)NC8=O)cccc7o6)nc5)ncc43)cc(C3CCC3)nc2n(C)c1=O (stereo not shown) [Example B164, 5-(5-(2-cyclobutyl-6,8-dimethyl-7-oxo-7,8-dihydro-1,8-naphthyridin-4-yl)-5,6,7,8-tetra-hydropyrido[3,2-d]pyrimidin-2-yl)-N-(3-(4-(2,6-dioxopiperidin-3-yl)benzofuran-2-yl)prop-2-yn-1-yl)picolinamide] | > 1000 | < 20 | > 80 | 10 to 99
16 | Cc1cc(-c2ncc3c(n2)CCCN3c2cc(C3CCOCC3)cc3c2cc(C)c(=O)n3C)cnc1C(=O)NCC#Cc1cc2c(C3CCC(=O)NC3=O)cccc2s1 (stereo not shown) [Example B165, 5-(5-(1,3-dimethyl-2-oxo-7-(tetrahydro-2H-pyran-4-yl)-1,2-dihydroquinolin-5-yl)-5,6,7,8-tetrahydropyrido[3,2-d]pyrimidin-2-yl)-N-(3-(4-(2,6-dioxopiperidin-3-yl)benzo[b]thiophen-2-yl)prop-2-yn-1-yl)-3-methylpicolinamide] | 10 to 99 | 20 to 39 | > 80 | 1 to 9.9
